From patent publication US9006241B2, “Pyrimidine derivatives” (Noviga Research AB, priority 2011, dated 2015)
pEC50: −log10 of the molar value.

Experiments:
Assay type in all cases: cell-based
[1] = tested on: CEM/VM1 (teniposide-resistant leukemia); test: FMCA, CEM/VM1; details: Homo sapiens, CEM/VM1 teniposide-resistant leukemia cells
From the text: (§1) The Fluorometric Microculture Cytotoxicity Assay, FMCA (Larsson, R., et al.; Anticancer Res, 1989, 9, 1111-1119), is a three day non-clonogenic microplate-based cell viability assay used for measurement of the cytotoxic and/or cytostatic effect of compounds in vitro (Lindhagen, E. et al.; Nat. Protoc., 2008, 3, 1364-1369). FMCA represents a valuable method to measure cytotoxicity in a number of cell types, both cell lines and primary cells from patients (Larsson, R., et al.; Int. J. Cancer, 1992, 50, 177-185; Fridborg, H., et al.; Eur. J. Cancer, 1999. 35, 424-432; Dhar, S., et al.; Br. J. Cancer, 1996, 74, 888-896).
(§2) FMCA is based on the principle that fluorescein diacetate (FDA) is converted to the fluorescent probe fluorescein by esterases in the plasma membranes of living cells. For experiments, 96 or 384-well microplates are prepared with compounds and stored at −70° C. until use. Cells are then seeded into the drug-prepared plates and placed in an incubator for 72 h. On the last day of incubation, the plates are washed and a buffer containing FDA is added and incubated with the cells for 45 minutes. Finally the fluorescence per well is measured in a fluorometer and a Survival Index % (SI) for each compound-treated well is calculated with the equation: Compound-treated cells minus blank divided by control cells minus blank. A high SI-value indicates a large percentage of living cells and vice versa.
(§3) For dose-response experiments, 384-well plates were prepared as follows:
(§4) Compounds of the invention as well comparative kinase inhibitors sorafenib sunitinib, dasatinib, pazopanib and a reference compound disclosed in WO 2009/071535 (compound #107) were diluted with PBS to a concentration ten-times higher than the desired starting concentration. Then, a Biomek 2000 liquid handling system was employed to serially dilute the compounds in a deep-well 384-well plate. From this plate, assay plates containing 5 μl compound per well were prepared with the Biomek 2000. Certain compounds precipitated when diluted with PBS, and these compounds were therefore prepared in a 96-well plate manually as described above using culture medium RPMI 1640 instead of PBS.
(§5) The compounds were also tested at five concentrations, with five times serial dilution on the following cell types: CCRF-CEM, hTERT-RPE1 (normal retinal epithelial cells), hRPTEpiC (normal renal cells), and peripheral blood mononuclear cells (PBMC). Each experiment was performed three times, except for PBMC and hRPTEpiC, which were performed twice. SI-values were calculated, graphs were plotted using GraphPadPrism 5.0 (GraphPad Software Inc. La Jolla, Calif.) and IC50-values for each cell type and compound were determined from the curves.
(§6) The compounds of the invention were also tested on further cancer cell lines related to breast cancer (MDA-MB-231; see e.g. Cailleau, R., et al.; J. Natl. Cancer Inst., 1974, 53, 661-674), teniposide-resistant leukemia (CEM/VM1 see e.g. Danks, M., et al.; Cancer Res., 1987, 47, 1297-1301), leukemia (HL-60; see e.g. Collins, S., et al.; Nature, 1977, 270, 347-349), doxorubicin-resistant lung cancer (H69AR; see e.g. Mirski, S., et al.; Cancer Res., 1987, 47, 2594-2598), myeloma (RPMI 8226; see e.g. Matsuoka, Y., et al.; Proc. Soc. Exp. Biol. Med., 1967, 125, 1246-1250), doxorubicin-resistant myeloma (8226/Dox40; see e.g. Dalton, W., et al.; Blood, 1989, 15, 747-752), lymphoma (U-937, see e.g. Sundström, C., et al.; Int. J. Cancer, 1976, 17, 565-577), vincristin-resistant lymphoma (U-937-vcr; see e.g. Botling, J., et al.; Int. J. Cancer, 1994, 58, 269-274), ovarian cancer (A2780; see e.g. Hamilton, T., et al.; Semin. Oncol., 1984, 11, 285-298), doxorubicin-resistant ovarian cancer (A2780/Adr), cisplatin-resistant ovarian cancer (A2780/Cis; see e.g. Behrens, B., et al. Cancer Res. 1987, 47, 414-418), pancreatic cancer (PANC-1, BxPC-3, and MIA PaCa-2; see e.g. Lieber, M., et al.; Int. J. Cancer, 1975, 15, 741-747; Loor, R., et al.; Clin. Lab. […]

U-937 (lymphoma) = test: FMCA, U-937; details: Homo sapiens, U-937 lymphoma cells
From the text: as §1, §2, §3, §4, §5, §6

[2] = tested on: CCRF-CEM cancer cells - leukemia; test: Fluorometric Microculture Cytotoxicity Assay (FMCA), CCRF-CEM; details: Homo sapiens, 72 h incubation
From the text: as §1, §2
In subsequent experiments, compounds were tested, along with a number of approved cancer drugs (dasatinib, pazopanib, sorafenib, and sunitinib) as described above. Initially, the acute lymphoblastic leukemia cell line CCRF-CEM was used throughout. In the assay plates, medium was added to six empty wells (blank wells) and wells were filled with PBS and cell suspension and served as control wells. SI-values were then calculated for each compound-treated well as described above. All experiments were conducted twice and a new batch of plates was prepared for each experiment.
as §3, §4, §5

[3] = tested on: H69AR (doxorubicin-resistant lung cancer); test: FMCA, H69AR; details: Homo sapiens, H69AR doxorubicin-resistant lung cancer cells
From the text: as §1, §2, §3, §4, §5, §6

[4] = tested on: A2780/Adr (doxorubicin-resistant ovarian cancer); test: FMCA, A2780/Adr; details: A2780/Adr doxorubicin-resistant ovarian cancer cells
From the text: as §1, §2, §3, §4, §5, §6

[5] = tested on: 8226/Dox40 (doxorubicin-resistant myeloma); test: FMCA, 8226/Dox40; details: 8226/Dox40 doxorubicin-resistant myeloma cells
From the text: as §1, §2, §3, §4, §5, §6

[6] = tested on: A2780/Cis (cisplatin-resistant ovarian cancer); test: FMCA, A2780/Cis; details: A2780cis, A2780/Cis cisplatin-resistant ovarian cancer cells
From the text: as §1, §2, §3, §4, §5, §6

[7] = tested on: U-937-vcr (vincristin-resistant lymphoma); test: FMCA, U-937-vcr; details: U-937-vcr vincristin-resistant lymphoma cells
From the text: as §1, §2, §3, §4, §5, §6

A2780 (ovarian cancer) = test: FMCA, A2780; details: Homo sapiens, A2780 ovarian cancer cells
From the text: as §1, §2, §3, §4, §5, §6

RPMI 8226 (myeloma) = test: FMCA, RPMI 8226; details: Homo sapiens, RPMI 8226 myeloma cells
From the text: as §1, §2, §3, §4, §5, §6

HL-60 (leukemia) = test: FMCA, HL-60; details: Homo sapiens, HL-60 leukemia cells
From the text: as §1, §2, §3, §4, §5
(§7) The compounds of the invention were also tested on further cancer cell lines related to breast cancer (MDA-MB-231; see e.g. Cailleau, R., et al.; J. Natl. Cancer Inst., 1974, 53, 661-674), teniposide-resistant leukemia (CEM/VM1 see e.g. Danks, M., et al.; Cancer Res., 1987, 47, 1297-1301), leukemia (HL-60; see e.g. Collins, S., et al.; Nature, 1977, 270, 347-349), doxorubicin-resistant lung cancer (H69AR; see e.g. Mirski, S., et al.; Cancer Res., 1987, 47, 2594-2598), myeloma (RPMI 8226; see e.g. Matsuoka, Y., et al.; Proc. Soc. Exp. Biol. Med., 1967, 125, 1246-1250), doxorubicin-resistant myeloma (8226/Dox40; see e.g. Dalton, W., et al.; Blood, 1989, 15, 747-752), lymphoma (U-937, see e.g. Sundström, C., et al.; Int. […]

[8] = tested on: PANC-1 (pancreatic cancer); test: FMCA, PANC-1; details: Homo sapiens, PANC-1 pancreatic cancer cells
From the text: as §1, §2, §3, §4, §5, §7

[9] = tested on: MIA PaCa-2 (pancreatic cancer); test: FMCA, MIA PaCa-2; details: Homo sapiens, MIA PaCa-2 pancreatic cancer cells
From the text: as §1, §2, §3, §4, §5, §7

[10] = tested on: BxPC-3 (pancreatic cancer); test: FMCA, BxPC-3; details: Homo sapiens, BxPC-3 pancreatic cancer cells
From the text: as §1, §2, §3, §4, §5, §7

[11] = tested on: MDA-MB-231 (breast cancer); test: FMCA, MDA-MB-231; details: Homo sapiens, MDA-MB-231 breast cancer cells
From the text: as §1, §2, §3, §4, §5, §7

PC-3 (prostate cancer) = test: FMCA, PC-3; details: PC-3 prostate cancer cells
From the text: as §1, §2, §3, §4, §5, §7

SMILES	pEC50 [1]	pEC50 (U-937 (lymphoma))	pEC50 [2]	pEC50 [3]	pEC50 [4]	pEC50 [5]	pEC50 [6]	pEC50 [7]	pEC50 (A2780 (ovarian cancer))	pEC50 (RPMI 8226 (myeloma))	pEC50 (HL-60 (leukemia))	pEC50 [8]	pEC50 [9]	pEC50 [10]	pEC50 [11]	pEC50 (PC-3 (prostate cancer))
COc1ccc2[nH]cc(CCNc3nc(C)cc(Nc4ccc5[nH]c(C)cc5c4)n3)c2c1 [Example 27, N^2-[2-(5-methoxy-1H-indol-3-yl)ethyl]-6-methyl-N^4-(2-methyl-1H-indol-5-yl)pyrimidine-2,4-diamine]	7.36	7.39	7.72	7.20	6.36	6.52	7.21	7.21	7.13	6.96						
COc1ccc2[nH]cc(CCNc3nccc(Nc4ccc5[nH]c(C)c(C)c5c4)n3)c2c1 [Example 14, N^4-(2,3-dimethyl-1H-indol-5-yl)-N^2-[2-(5-methoxy-1H-indol-3-yl)ethyl]pyrimidine-2,4-diamine]	7.29	7.14	7.68	6.70	6.36	6.55	7.20	7.36	6.96	6.68						
COc1ccc2[nH]cc(CCNc3nccc(Nc4ccc5[nH]c(C)cc5c4)n3)c2c1 [Example 4, N^2-[2-(5-methoxy-1H-indol-3-yl)ethyl]-N^4-(2-methyl-1H-indol-5-yl)pyrimidine-2,4-diamine]	8.18	7.89	7.55	7.64	6.85	6.96	7.60	7.55	7.48	7.35	8.04	5.80	7.85	7.43	7.00	6.62
COc1ccc2[nH]cc(CCNc3nccc(Nc4ccc5c(c4)cc(C)n5C)n3)c2c1 [Example 13, N^4-(1,2-dimethyl-1H-indol-5-yl)-N^2-[2-(5-methoxy-1H-indol-3-yl)ethyl]pyrimidine-2,4-diamine]	7.42	7.52	7.72	6.92	6.48	6.74	7.14	7.54	7.19	6.92	7.70	6.07	7.27	6.89	6.42	6.42
COc1ccc2[nH]cc(CCNc3nccc(Nc4ccc5[nH]c(C)nc5c4)n3)c2c1 [Example 19, N^2-[2-(5-methoxy-1H-indol-3-yl)ethyl]-N^4-(2-methyl-1H-benzo[d]imidazol-5-yl)pyrimidine-2,4-diamine]	7.21	7.00	7.49	6.03	5.70	4.52	6.64	6.11	6.89	5.11	7.04	5.28	7.51	6.04	5.72	5.68
Cc1ccc2[nH]cc(CCNc3nccc(Nc4ccc5[nH]c(C)cc5c4)n3)c2c1 [Example 9, N^2-[2-(5-methyl-1H-indol-3-yl)ethyl]-N^4-(2-methyl-1H-indol-5-yl)pyrimidine-2,4-diamine]	7.19	7.10	7.42	6.77	6.09	6.70	6.70	7.34	6.68	6.77						
CCOc1ccc2[nH]cc(CCNc3nccc(Nc4ccc5ccn(C)c5c4)n3)c2c1 [Example 76, N^2-[2-(5-ethoxy-1H-indol-3-yl)ethyl]-N^4-(1-methylindol-6-yl)pyrimidine-2,4-diamine]			> 6.00													
